For assay [1], the target named is T1, human TGR5 (Homo sapiens, UniProt Q8TDU6).
T1 construct: expressed in transfected cells; host or cells: HEK293
T1 sequence (Q8TDU6 1-330): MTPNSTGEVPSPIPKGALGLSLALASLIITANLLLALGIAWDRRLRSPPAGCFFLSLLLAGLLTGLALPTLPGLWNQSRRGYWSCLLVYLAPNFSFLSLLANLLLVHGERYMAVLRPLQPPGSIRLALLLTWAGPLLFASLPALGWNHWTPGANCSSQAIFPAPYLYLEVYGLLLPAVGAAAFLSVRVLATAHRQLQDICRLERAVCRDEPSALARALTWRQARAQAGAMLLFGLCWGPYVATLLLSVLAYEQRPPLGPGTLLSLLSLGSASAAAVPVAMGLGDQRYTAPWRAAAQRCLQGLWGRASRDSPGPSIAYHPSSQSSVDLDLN
The experiment in a line: Cell-based TGR5 assay (cAMP generation, HTRF). To be noted: HEK293 cells stably transfected with human TGR5; cAMP by HTRF; 30 minutes at 37° C.; read-out: pEC50 Human TGR5 (converted). In a few lines:
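First, compounds in 3-fold serial dilution were placed in HBSS with 10 mM HEPES pH 7.4 and 0.5 mM IBMX. Next, human TGR5-expressing HEK293 cells were added and incubated 30 min at 37° C. Finally, cAMP was detected by HTRF and pEC50 derived by logistic fitting.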
(In general: Time-resolved FRET reads energy transfer from a long-lived donor to a nearby acceptor.)

For assay [2], the system named is small intestine transit. The experiment in a line: Intestinal motility independent of gastric emptying (carmine red dye front). The format is in vivo, C57BL/6 male mice. To be noted: I-389 30 mg/kg PO; dye infused via duodenal catheter 1 h later; 15 min; vs vehicle; FIG. 6. The procedure:
Seven-eight week old C57BL/6 male mice were acclimated for four days. Mice were then divided into 2 groups and fasted for 2-1/2 h, followed by a PO dose (10 mL/kg) of vehicle (10% 2-hydroxypropyl-β-cyclodextrin [HPCD] in 10 mM PBS containing 0.1% tween 80; HPCD/tween 80) or I-389 30 mg/kg. One hour later, carmine red (6% in sterile water; 100 μL/mouse) dye was infused via the duodenal catheter and mice were euthanised fifteen min after that. The entire length of the small intestine and the distance from the stomach to the dye front in the small intestine was measured and used to calculate the percentage of the small intestine the dye front had travelled during the 15 min timeframe.

The subject of assay [3] is Western diet (WD)-fed mice. Nature of the assay: Mouse model of NAFLD and mild diabetes, Western diet (WD)-fed mice: glucose, insulin, liver lipids, GLP levels. The format is in vivo, C57BL/6 male mice. The procedure:
Seven week old C57BL/6 male mice were housed 5/cage. Two cages of mice were put on normal chow (Harlan Teklad 2018), and the remaining cages of mice were put on WD (Harlan Teklad, TD.88137, […]/0.2% cholesterol) to induce NAFLD. After 10 weeks, mice were weighed and fasted for 4 h. Blood was collected to measure fasting glucose levels, processed to plasma for measurement of insulin, triglycerides and total cholesterol. This process was repeated on Day 29 of treatment. Based on body weight and fasted glucose and insulin levels, mice were divided into 5 treatment groups (n=10/group), Table 20. […] Mice were weighed twice weekly throughout the study. On the last day of the study (Day 30, 8 hours after food removal), mice were euthanized. Blood was collected in tubes with inhibitors to block DPP-4 activity and processed to plasma for measurement of liver enzymes and GLP levels using an Ace Alera clinical analyzer and the Multi-Array Assay System from Meso Scale Discovery, respectively. The entire liver was collected, weighed, and a sample was taken and weighed for measurement of triglycerides and total cholesterol.
Data for each group are presented as mean±SEM. Statistical analyses were performed using one-way ANOVA followed by Holm-Sidak's multiple comparisons test. For GLP levels, <statistical significance compared to vehicle (WD) is marked as *, P<0.05; **, P<0.01, ***, P<0.001, and ****, P<0.0001; of linagliptin (WD) versus I-389 alone (WD) or linaglptin+I-389 (WD) is marked as †, P<0.05; ††, P<0.01, of †††, P<0.001, and ††††, P<0.0001; and of I-389 (WD) versus linagliptin (WD)+I-389 (WD) is marked as ^, P<0.05; ^ ^P<0.01, ^ ^^P, P<0.001, and ^ ^^^, P<0.0001. For the remaining parameters, statistical significance compared to vehicle (WD) is marked as *, P<0.05; **, P<0.01, ***, P<0.001, and ****, P<0.0001.

The values that follow come from patent US12084472B2 (Ardelyx, Inc., priority 2015, dated 2024).

Each structure is given as a SMILES string. Marks after values point to notes of the source that are not given here.

Take `CN(CCCCNC(=O)N[C@@H](CO)[C@@H](O)[C@H](O)[C@H](O)CO)S(=O)(=O)c1ccc(Cl)c(COC2(c3cnccc3-c3ccccc3OC3CC3)CC2)c1` [Compound I-389, 1-(4-[N-methyl[4-chloro-3-([1-[4-(2-cyclopropoxyphenyl)pyridin-3-yl]cyclopropoxy]methyl)benzene]sulfonamido]butyl)-3-[(2S,3R,4S,5R)-1,3,4,5,6-pentahydroxyhexan-2-yl]urea]: in assay [1], the EC50 is less than 100 nM. The “percentage the carmine red dye front travelled in the small intestine” value in assay [2] is given as “statistically significant increase”. Moreover, the “active GLP-1 levels / release” value in assay [3] (WD-fed mice, Day 30 plasma, I-389 30 mg/kg, linagliptin 10 mg/kg, FIG. 14) is listed as “effective at inducing active GLP-1 release”. Besides, the “total GLP-1 levels” value in assay [3] (WD-fed mice, Day 30 plasma, I-389 30 mg/kg, linagliptin 10 mg/kg, FIG. 15) was “highly elevated”. The body weight entry in assay [3] (WD-fed mice, data not shown) was “did not significantly affect”. In assay [3] (WD-fed mice, vs vehicle (WD)), the “liver total cholesterol levels (in words)” value is reported as “lowered” and the “liver triglycerides (in words)” value is reported as “lowered”. Besides, the Liver weight in assay [3] (Western diet, liraglutide 0.4 mg/kg BID SQ, I-389 30 mg/kg BID PO, linagliptin 10 mg/kg QD PO, mean±SEM, vehicle WD 2.13 ± 0.14) is on record as 1.77 ± 0.09* g. For the same compound, the 4-h fasted insulin in assay [3] (Western diet, liraglutide 0.4 mg/kg BID SQ, I-389 30 mg/kg BID PO, linagliptin 10 mg/kg QD PO, mean±SEM, vehicle WD 2.3 ± 0.3) is listed as 1.6 ± 0.2* ng/mL. In addition, the Hepatic cholesterol in assay [3] (Western diet, liraglutide 0.4 mg/kg BID SQ, I-389 30 mg/kg BID PO, linagliptin 10 mg/kg QD PO, mean±SEM, vehicle WD 8.56 ± 0.25) was 7.24 ± 0.41** mg/g. Moreover, in assay [3] (Western diet, liraglutide 0.4 mg/kg BID SQ, I-389 30 mg/kg BID PO, linagliptin 10 mg/kg QD PO, mean±SEM, vehicle WD 145.40 ± 14.80), the Hepatic triglycerides is listed as 87.82 ± 13.77*** mg/g. For the same compound, the 4-h fasted glucose in assay [3] (Western diet, liraglutide 0.4 mg/kg BID SQ, I-389 30 mg/kg BID PO, linagliptin 10 mg/kg QD PO, mean±SEM, vehicle WD 239 ± 13) is given as 178 ± 7** mg/dL.
